Measured values as given in patent US5574142A, “Peptide linkers for improved oligonucleotide delivery” (MicroProbe Corporation, priority 1992, dated 1996).
{C6NH2} = aminohexyl phosphate linker

Tests used:
[1] = system: unmodified 20-mer ODN complement with the base sequence 5'-GTGACGAACATGGAGAACAT; experiment: Thermal denaturation studies (Tm of duplex with complementary ODN); format: binding; conditions: equimolar ODN and 20-mer complement, 2 μM solutions in pH 7.2 PBS, A260, 15-85° C. at 0.5° C./min
Experimental: The ODN-peptide conjugates prepared from ODN1 were further characterized by thermal denaturation studies as described in EXAMPLE III. The dissociation of duplexes formed from equimolar concentrations of the ODN1-peptide conjugates and an unmodified 20-mer ODN target were examined. The changes in absorbance at 260 nm were measured as a function of temperature and the melting temperatures (Tm) were determined. […] Therefore, amino acid residue(s) from proteolysis of the linker are, generally speaking, expected to have little effect on the biological activity of the released ODN.
Thermal Denaturation Studies (ODN1-Peptides). Thermal dissociation curves were obtained by following changes in A260 of aqueous solutions containing equimolar amounts of the particular ODN1-peptide described above and an unmodified 20-mer ODN complement with the base sequence 5'-[…] Sequence ID No.: 14. The 5'-hexylamine modified 16-mer (ODN1) was used as a control in each run. ODNs were prepared as 2 μM solutions in pH 7.2 PBS. A Gilford System 2600 UV-VIS spectrophotometer equipped with a Gilford 2527 Thermoprogrammer was used. […] Absorbance vs. time and the first derivative data were recorded automatically. […] The Tm was determined using the derivative maxima: ODN1, Tm =62.8° C.; ODN1-PEP1, Tm =61.8° C.; ODN1-PEP2, Tm =59.0° C.; […]° C.

[2] = system: trypsin; experiment: Protease degradation studies (trypsin digestion, polyacrylamide gel electrophoresis); format: biochemical; conditions: 2 μg ODN-peptide, Tris pH 9.0, EDTA, digesting 60 min, 20% denaturing polyacrylamide gel
Description: The model ODN-peptide conjugates were further characterized by their susceptibility to proteolysis with trypsin. (For detail see EXAMPLE IV). As is known in the art, trypsin catalyzes the hydrolysis at the carboxyl side of lysine or arginine residues in the peptides. It was found in accordance with the present invention that trypsin had no effect on the ODN as shown by polyacrylamide gel electrophoresis in FIG. 6.
Protease Degradation Studies (ODN1-Peptides). The three ODN1-peptide conjugates (described in Table I) were characterized by treatment with trypsin. Solutions of 2 μg of the ODN-peptide in 7 μL of water were combined with 1 μL of 10x trypsin disruption solution, 1 μL of 100 mM Tris buffer (pH 9.0), and 1 μL of 100 mM EDTA. After digesting 60 min, the samples were loaded on 20% denaturing polyacrylamide gel. Electrophoresis indicated complete proteolysis of starting ODN1-peptide (see FIG. 6, lanes 1-6). Trypsin had no effect on an unmodified ODN1 control (lanes 8 and 9).

## H2 N--(CH2)6 --O--PO2^- -5'O--CTCCATCTTCGTCACA (5' {C6NH2}, sugars by position and backbone not given here) [ODN1, 5'-hexylamine modified 16-mer ODN complementary to initiation codon region of Hepatitis B surface antigen mRNA]
[1]
  Tm (melting temperature, derivative maxima): 62.8 °C
[2]
  proteolysis by trypsin (electrophoresis): no effect
